The results in this text go back to PubChem BioAssay (NCI).

Some test systems named below: A549 NSCLC; MDA-MB-435; SN12C renal; SK-MEL-5 melanoma; SNB-75 CNS; NCI-H23 lung; OVCAR-3 ovarian; SW-620 colon; M14 melanoma; BT-549 breast.
Holding throughout (assay): growth of human tumour cells (NCI), 48 h

Where “and” joins values, the source holds several entries; their conditions need not be identical. Equal entries are not always repeated.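 All cell lines were grown in 96-well plates and treated with compound for 48 hours. GI50: concentration for 50% inhibition of growth. TGI marks complete inhibition of growth.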

For the compound `NC(=O)CCC(NC(=O)c1cccc2c(=O)c3ccccc3[nH]c12)C(=O)O` (centres undefined), the TGI with A549 NSCLC, in the assay on MDA-MB-435, in the assay on SN12C renal, in the assay on SK-MEL-5 melanoma, in the assay on SNB-75 CNS and in the assay with NCI-H23 lung was over 100 µM each time. The TGI in the assay with OVCAR-3 ovarian, with SW-620 colon and in the assay on M14 melanoma was over 100 µM throughout.
Take `CC(=O)NC(C)c1ccc(N=NN2CCCC2)cc1` (centres undefined): the TGI with A549 NSCLC, in the assay on MDA-MB-435, with SN12C renal, in the assay with SK-MEL-5 melanoma, in the assay with SNB-75 CNS and in the assay on NCI-H23 lung was over 100 µM throughout. For the same compound, the TGI in the assay with OVCAR-3 ovarian, in the assay on SW-620 colon and in the assay on M14 melanoma was over 100 µM in each case.
With `CNc1ncnc2c1nnn2C`, the TGI in the assay with A549 NSCLC, with MDA-MB-435, in the assay with SN12C renal, in the assay with SK-MEL-5 melanoma, in the assay with SNB-75 CNS and in the assay with NCI-H23 lung was over 100 µM each time. In addition, the TGI in the assay with OVCAR-3 ovarian, with SW-620 colon and with M14 melanoma was over 100 µM each time.
In the case of `Clc1ccc2nc(CC3CCCC3)[nH]c2c1`, the TGI in the assay on A549 NSCLC came to 60.8 µM; in the assay with MDA-MB-435, 25.9 µM; in the assay on SN12C renal, 36.8 µM; with SK-MEL-5 melanoma, 24.9 µM; in the assay with SNB-75 CNS, 56 µM; in the assay on NCI-H23 lung it was 30.6 µM. Moreover, the results for the TGI in the assay on OVCAR-3 ovarian, in the assay with SW-620 colon and in the assay with M14 melanoma were 22.7 µM, over 100 µM and 38.2 µM, respectively.
`C=C1C(=O)O[C@@H]2OC3(C)CCC4C(C)CCC1C42OO3` (some centres undefined): the GI50 in the assay with A549 NSCLC is 7.23 µM; with SN12C renal it was 4.96 µM; in the assay with SNB-75 CNS, 13.1 µM; with NCI-H23 lung it was 7.77 µM; in the assay with OVCAR-3 ovarian it was 7.42 µM; in the assay on SW-620 colon, 3.44 µM. Besides, the TGI in the assay with A549 NSCLC was 23.1 µM and 18.7 µM; in the assay with SN12C renal it was 16.6 µM and 12.3 µM; in the assay with SK-MEL-5 melanoma it was 17.2 µM; in the assay on SNB-75 CNS, 25.9 µM and 7.74 µM; with NCI-H23 lung it was 22 µM and 17.5 µM; in the assay with OVCAR-3 ovarian, 19.6 µM and 10 µM. Moreover, the TGI with SW-620 colon is 13.6 µM and 10.8 µM.
With `O=C1OC(c2ccc(Cl)cc2)(c2ccc(Cl)cc2)c2c1ccc1ccccc21`, the TGI in the assay on A549 NSCLC, in the assay on SN12C renal, with SK-MEL-5 melanoma, in the assay with SNB-75 CNS, with NCI-H23 lung and in the assay with OVCAR-3 ovarian was over 100 µM in each case. This compound also yielded a TGI with SW-620 colon of over 100 µM.
Take `Cn1c(N=[N+]=[N-])cc(=O)n(C)c1=O`: the TGI in the assay with A549 NSCLC, in the assay with BT-549 breast, in the assay with MDA-MB-435, in the assay with SN12C renal, in the assay with SK-MEL-5 melanoma and with NCI-H23 lung was over 100 µM throughout. For the same compound, the TGI in the assay on OVCAR-3 ovarian, in the assay with SW-620 colon and in the assay on M14 melanoma was over 100 µM each time.
Turning to `N/C(=N\N=C\c1cc2c(cc1Cl)OCO2)NO`, the TGI with A549 NSCLC was over 100 µM; in the assay with SN12C renal it was over 100 µM; in the assay with SK-MEL-5 melanoma, 58.9 µM; in the assay with SNB-75 CNS, over 100 µM; in the assay with NCI-H23 lung, over 100 µM; with OVCAR-3 ovarian it was over 24.6 µM. Also, in the assay on SW-620 colon, the TGI was over 100 µM.
With `CCCCNC(=S)c1ccc(OC(=O)Nc2ccc(Cl)cc2)cc1`, the TGI in the assay with A549 NSCLC, in the assay on BT-549 breast, with MDA-MB-435, in the assay on SK-MEL-5 melanoma, with NCI-H23 lung and with OVCAR-3 ovarian was over 100 µM in each case. Further, the TGI with SW-620 colon and with M14 melanoma was over 100 µM each time.
As for `N#CCSc1c(-c2ccccc2)c(=O)n(-c2ccccc2)c(=S)n1-c1ccccc1`, the TGI in the assay on A549 NSCLC, in the assay on MDA-MB-435, with SN12C renal, in the assay with SK-MEL-5 melanoma, with SNB-75 CNS and in the assay on NCI-H23 lung was over 100 µM in each case. Also, the TGI with OVCAR-3 ovarian, with SW-620 colon and with M14 melanoma was over 100 µM throughout.
On to `CCCCCCCC(=O)OCC(C[As](=O)(O)O)OC(=O)CCCCCCC` (centres undefined), for which the TGI with A549 NSCLC was determined as 53.3 µM; in the assay with SN12C renal it was 27.9 µM; with SK-MEL-5 melanoma it was 32 µM; in the assay with SNB-75 CNS it was 31.1 µM; with NCI-H23 lung, 28.7 µM; in the assay with SW-620 colon, 29.1 µM. This compound showed a TGI in the assay with M14 melanoma of 28.5 µM.
As for `COc1cc([C@@H]2c3cc4c(cc3[C@@H](N=Cc3ccc(C(=O)O[C@@H](C(=O)O[C@H]5C[C@@]6(O)[C@@H](OC(=O)c7ccccc7)[C@@H]7[C@]8(OC(C)=O)CO[C@@H]8C[C@H](O)[C@@]7(C)C(=O)[C@H](OC(C)=O)C(=C5C)C6(C)C)[C@@H](NC(=O)c5ccccc5)c5ccccc5)cc3)[C@H]3COC(=O)[C@H]23)OCO4)cc(OC)c1O`, the TGI with A549 NSCLC is over 50 µM; in the assay on BT-549 breast, over 11.7 µM; in the assay on MDA-MB-435, 0.00867 µM; with SN12C renal, over 50 µM; with SK-MEL-5 melanoma it was over 50 µM; in the assay with NCI-H23 lung it was over 18.5 µM. For the same compound, the values for the TGI with OVCAR-3 ovarian, in the assay on SW-620 colon and in the assay on M14 melanoma were 0.164 µM, over 50 µM and over 50 µM, respectively.
Take `Cc1c(O)c(=O)ccn1CCc1c[nH]c2ccccc12`: the TGI in the assay on A549 NSCLC is over 100 µM; with BT-549 breast, over 100 µM; with MDA-MB-435 it was over 100 µM; with SK-MEL-5 melanoma, 24.1 µM; with NCI-H23 lung, over 100 µM; in the assay on SW-620 colon, over 100 µM. In the assay on M14 melanoma, this compound returned a TGI of 40.2 µM.
Take `Cc1ccc(S(=O)(=O)C2c3nc4ccccc4cc3-c3nc4ccccc4nc32)cc1` (centres undefined): the TGI in the assay on A549 NSCLC, in the assay with SN12C renal, in the assay on SK-MEL-5 melanoma, in the assay on SNB-75 CNS, with NCI-H23 lung and in the assay with OVCAR-3 ovarian was over 100 µM in each case. Moreover, the TGI in the assay on SW-620 colon and in the assay with M14 melanoma was over 100 µM throughout.
In the case of `CCNc1cc2c3c(c1)CCCN3CCC2`, the TGI is 35.9 µM with A549 NSCLC; 11.2 µM in the assay with MDA-MB-435; 8.63 µM in the assay on SN12C renal; 28.2 µM in the assay with SK-MEL-5 melanoma; 32.7 µM with SNB-75 CNS; 21.9 µM with NCI-H23 lung. The TGI in the assay on OVCAR-3 ovarian came out at 19.1 µM; in the assay on SW-620 colon it was 55.2 µM; in the assay with M14 melanoma, 63.7 µM.
